Target: T1, bCA-II (Bos taurus, UniProt P00921)
T1 construct: gene CA2
Experiment: NPA (4-nitrophenyl acetate) hydrolysis assay with isolated bCA-II after […] nm photodeprotection of PCEM
Format: biochemical

T1 sequence (P00921 2-260): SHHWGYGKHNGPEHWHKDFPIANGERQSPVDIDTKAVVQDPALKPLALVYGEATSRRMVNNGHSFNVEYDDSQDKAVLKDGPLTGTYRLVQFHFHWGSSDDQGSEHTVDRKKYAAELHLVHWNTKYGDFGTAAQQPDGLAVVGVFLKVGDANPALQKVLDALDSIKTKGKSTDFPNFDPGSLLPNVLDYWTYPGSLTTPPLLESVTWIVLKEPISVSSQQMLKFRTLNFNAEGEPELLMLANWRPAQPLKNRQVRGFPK

IC50: 2900 nM
SMILES: NS(=O)(=O)c1nc2ccc(OCCC[n+]3ccccc3)cc2s1 [dPCEM]

— PMC12226970, “A subcellularly targeted photocaged inhibitor for mitochondrial carbonic anhydrase V” (Dalton Transactions (Cambridge, England : 2003), 2025)
